From patent publication US12570695B2, “Bicyclic peptide ligands specific for EphA2” (priority 2019, dated 2026)
Starred links: 1 amine or outer side, 2 acyl side, 3 side chain; linkers in the order of their positions; H or OH if unused. Positions of bridges follow the written chain, without caps; N, C: chain ends. Non-standard residues stand in square brackets, D forms with d. Residues, ends and D or L forms follow the SMILES beside them. TATA = O=C(CC[*:1])N1CN(C(=O)CC[*:2])CN(C(=O)CC[*:3])C1; 1Nal = N[C@@H](Cc1cccc2ccccc12)C(=O)O; Hyp = O=C(O)[C@@H]1C[C@@H](O)CN1; hArg = N=C(N)NCCCC[C@H](N)C(=O)O; 2Thi = N[C@@H](Cc1cccs1)C(=O)O; NMeA = CN[C@@H](C)C(=O)O

biological target: human EphA2 (Homo sapiens, UniProt P29317); assay: biochemical
Sequence (P29317 24-976): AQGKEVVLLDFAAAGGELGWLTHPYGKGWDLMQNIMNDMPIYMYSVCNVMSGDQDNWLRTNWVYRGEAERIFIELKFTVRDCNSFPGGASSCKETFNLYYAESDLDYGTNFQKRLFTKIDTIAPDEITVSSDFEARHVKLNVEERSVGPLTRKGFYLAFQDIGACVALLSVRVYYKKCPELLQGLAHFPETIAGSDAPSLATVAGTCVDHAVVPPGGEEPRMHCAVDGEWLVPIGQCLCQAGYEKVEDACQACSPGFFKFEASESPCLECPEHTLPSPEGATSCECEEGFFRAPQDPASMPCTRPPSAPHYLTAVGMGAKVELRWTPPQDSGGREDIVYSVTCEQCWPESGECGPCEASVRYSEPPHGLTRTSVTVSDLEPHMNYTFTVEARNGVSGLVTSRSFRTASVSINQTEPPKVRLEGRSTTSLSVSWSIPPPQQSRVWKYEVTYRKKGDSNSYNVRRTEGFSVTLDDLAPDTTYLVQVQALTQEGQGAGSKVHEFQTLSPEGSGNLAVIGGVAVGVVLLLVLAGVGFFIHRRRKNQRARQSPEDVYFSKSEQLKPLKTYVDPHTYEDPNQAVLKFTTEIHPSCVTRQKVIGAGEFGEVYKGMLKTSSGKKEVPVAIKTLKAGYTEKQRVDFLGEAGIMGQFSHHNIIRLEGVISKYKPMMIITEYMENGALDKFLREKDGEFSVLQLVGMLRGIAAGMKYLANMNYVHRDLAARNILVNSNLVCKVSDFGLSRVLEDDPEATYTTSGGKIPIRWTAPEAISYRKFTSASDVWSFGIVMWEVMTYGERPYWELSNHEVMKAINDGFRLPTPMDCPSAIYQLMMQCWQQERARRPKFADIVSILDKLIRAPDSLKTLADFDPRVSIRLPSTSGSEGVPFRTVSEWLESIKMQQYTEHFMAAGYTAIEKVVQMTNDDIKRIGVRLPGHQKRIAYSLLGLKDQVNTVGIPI
Experimental: Peptides without a fluorescent tag were tested in competition with a peptide with a fluorescent tag and a known Kd.
Peptides were diluted to an appropriate concentration in assay buffer as described in the direct binding assay with a maximum of 5% DMSO, then serially diluted 1 in 2. […] Measurements were conducted, however the gain was determined prior to the first measurement. Data analysis was in Systat Sigmaplot version 12.0 where the mP values were fit to a user defined cubic equation to generate a Ki value:
“Lig”, “KLig” and “Prot” were all defined values relating to: fluorescent peptide concentration, the Kd of the fluorescent peptide and EphA2 concentration respectively.

SMILES	Ki [nM]
CN[C@@H](C)C(=O)N[C@@H](CCCCNC(=N)N)C(=O)N[C@@H](CC(=O)O)C(=O)N[C@H]1CSCCC(=O)N2CN3CN(C2)C(=O)CCSC[C@H](NC(=O)[C@H](CC(C)C)NC(=O)[C@@H]2CCCN2C(=O)[C@H](CC(N)=O)NC(=O)[C@H](C(C)C)NC(=O)[C@H](CC(C)C)NC(=O)[C@@H]2C[C@@H](O)CN2C1=O)C(=O)N[C@@H](CC(C)C)C(=O)N[C@@H](Cc1c[nH]cn1)C(=O)N1CCC[C@H]1C(=O)N[C@H](CC(=O)O)C(=O)N[C@@H](Cc1c[nH]c2ccccc12)C(=O)N[C@@H](CCCCNC(=N)N)C(=O)N[C@H](C(N)=O)CSCCC3=O [BCY13121, [NMeAla]-[HArg]-D-Ci[HyP]LVNPLCiiLHP[dD]W[HArg]Ciii] (H-[NMeA][hArg]DC[Hyp]LVNPLCLHP[dD]W[hArg]C-NH2; linker 4-11-18 via TATA; N-terminus and C-terminus assumed)	1.49
CC(C)C[C@@H]1NC(=O)[C@@H]2CSCCC(=O)N3CN(CN(C3)C(=O)CCSC[C@H](NC(=O)[C@H](CC(=O)O)NC(=O)[C@H](CCCCNC(=N)N)NC(=O)[C@H](C)N)C(=O)N3C[C@H](O)C[C@H]3C(=O)N[C@@H](CC(C)C)C(=O)N[C@@H](C(C)C)C(=O)N[C@@H](CC(N)=O)C(=O)N3CCC[C@H]3C(=O)N[C@@H](CC(C)C)C(=O)N2)C(=O)CCSC[C@@H](C(N)=O)NC(=O)[C@H](CCCCNC(=N)N)NC(=O)[C@H](Cc2c[nH]c3ccccc23)NC(=O)[C@@H](CC(=O)O)NC(=O)[C@@H]2CCCN2C(=O)[C@H](CCC(=O)O)NC1=O [BCY12854, A-[HArg]-D-Ci[HyP]LVNPLCiiLEP[dD]W[HArg]Ciii] (H-A[hArg]DC[Hyp]LVNPLCLEP[dD]W[hArg]C-NH2; linker 4-11-18 via TATA; N-terminus and C-terminus assumed)	9.34
CC(C)C[C@@H]1NC(=O)[C@@H]2CSCCC(=O)N3CN(CN(C3)C(=O)CCSC[C@H](NC(=O)[C@H](CC(=O)O)NC(=O)[C@H](CCCCNC(=N)N)NC(=O)[C@H](C)N)C(=O)N3C[C@H](O)C[C@H]3C(=O)N[C@@H](CC(C)C)C(=O)N[C@@H](C(C)C)C(=O)N[C@@H](CC(N)=O)C(=O)N3CCC[C@H]3C(=O)N[C@@H](CC(C)C)C(=O)N2)C(=O)CCSC[C@@H](C(N)=O)NC(=O)[C@H](CCCCNC(=N)N)NC(=O)[C@H](Cc2c[nH]c3ccccc23)NC(=O)[C@@H](CC(=O)O)NC(=O)[C@@H]2CCCN2C(=O)[C@H](Cc2cccc3ccccc23)NC1=O [BCY13117, A-[HArg]-D-Ci[HyP]LVNPLCiiL[1Nal]P[dD]W[HArg]Ciii] (H-A[hArg]DC[Hyp]LVNPLCL[1Nal]P[dD]W[hArg]C-NH2; linker 4-11-18 via TATA; N-terminus and C-terminus assumed)	1.12
CC(C)C[C@@H]1NC(=O)[C@@H]2CSCCC(=O)N3CN(CN(C3)C(=O)CCSC[C@H](NC(=O)[C@H](CC(=O)O)NC(=O)[C@H](CCCCNC(=N)N)NC(=O)[C@H](C)N)C(=O)N3C[C@H](O)C[C@H]3C(=O)N[C@@H](CC(C)C)C(=O)N[C@@H](C(C)C)C(=O)N[C@@H](CC(N)=O)C(=O)N3CCC[C@H]3C(=O)N[C@@H](CC(C)C)C(=O)N2)C(=O)CCSC[C@@H](C(N)=O)NC(=O)[C@H](CCCCNC(=N)N)NC(=O)[C@H](Cc2c[nH]c3ccccc23)NC(=O)[C@@H](CC(=O)O)NC(=O)[C@@H]2CCCN2C(=O)[C@H](Cc2cccs2)NC1=O [BCY13922, A[HArg]DCi[HyP]LVNPLCiiL[Thi]P[dD]W[HArg]Ciii] (H-A[hArg]DC[Hyp]LVNPLCL[2Thi]P[dD]W[hArg]C-NH2; linker 4-11-18 via TATA; N-terminus and C-terminus assumed)	1.14
